Laboratory results as given in patent US20210395327A1, “Growth Hormone-Releasing Hormone Antagonists and Uses Thereof” (United States Government As Represented By The Department …, priority 2019, published 2021).
pIC50: −log10 of the molar value. Read-outs that look alike come from different tables or passages of the source. Non-standard residues stand in square brackets, D forms with d. Residues, ends and D or L forms follow the SMILES beside them. *: point of attachment. Phe(F5) = N[C@@H](Cc1c(F)c(F)c(F)c(F)c1F)C(=O)O; Phe(4-Cl) = N[C@@H](Cc1ccc(Cl)cc1)C(=O)O; hArg = N=C(N)NCCCC[C@H](N)C(=O)O; 12Ado = NCCCCCCCCCCCC(=O)O; Nle = CCCC[C@H](N)C(=O)O; Orn = NCCC[C@H](N)C(=O)O; Abu = CC[C@H](N)C(=O)O; PhAc = O=C(Cc1ccccc1)*

Assays:
[1] = biological target: T1, membrane GHRH-receptors on human anterior pituitary cells (Homo sapiens, UniProt Q02643); test: Receptor binding, displacement of 125I-[His1,Nle27]-hGH-RH(1-32)NH2 on human pituitary membranes
T1 construct: Human pituitary was purchased from the National Hormone and Peptide Program; tissue National Hormone and Peptide Program; host or cells: human pituitary (membrane fractions)
T1 sequence (Q02643 23-423): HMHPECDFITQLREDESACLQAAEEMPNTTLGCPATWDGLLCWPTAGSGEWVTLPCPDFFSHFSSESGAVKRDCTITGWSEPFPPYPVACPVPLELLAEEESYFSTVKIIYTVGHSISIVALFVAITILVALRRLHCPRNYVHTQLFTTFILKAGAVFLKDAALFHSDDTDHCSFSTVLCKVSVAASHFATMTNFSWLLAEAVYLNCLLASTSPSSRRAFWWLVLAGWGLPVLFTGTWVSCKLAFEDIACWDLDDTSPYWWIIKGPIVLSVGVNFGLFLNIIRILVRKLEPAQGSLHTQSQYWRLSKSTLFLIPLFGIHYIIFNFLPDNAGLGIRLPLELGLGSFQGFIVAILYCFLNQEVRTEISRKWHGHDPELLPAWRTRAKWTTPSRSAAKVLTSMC
Description: Receptor binding affinities in vitro. Preparation of human pituitary membrane fractions and receptor binding of analogs of GH-RH were performed (Halmos G, Rekasi Z, Szoke B, Schally A V. (1993) Receptor 3:87-97). Human pituitary was purchased from the National Hormone and Peptide Program. […] Relative affinities compared to hGH-RH(1-29)NH2 were calculated as the ratio of IC50 (dose causing 50% inhibition of specific binding to receptors) of the tested peptides to the IC50 of hGH-RH(1-29)NH2. The values were calculated from technical duplicate tubes.
Nineteen new AVR analogs of GHRH were tested in the receptor binding assay. Table 6 presents the IC50 values of GHRH antagonists to membrane GHRH-receptors binding on human anterior pituitary cells.

[2] = test system: KATOIII stomach cancer cells; test: In vitro cell viability, KATOIII; type: cell-based, human; conditions: antagonist 5 μM for 72 h, cell proliferation assay; MIA602 = 1
Description: (§1) The inhibitory effects of the various synthesized GHRH antagonists were tested in cell proliferation assays in various human cancer cell lines including stomach cancer (KATOIII, N87), colon cancer (HT-29), urothelial cancer (J82, RT4), pancreatic cancer (PANC-1, CFPAC-1), prostatic cancer (PC3), breast cancer (MX-1, HCC1806), ovarian cancer (SK-OV-3, OVCAR-3) and lung cancer (HCC827, H460).
(§2) Cell culture. Human cancer cell lines including pancreatic (PANC-1 and CFPAC-1), lung (HCC827 and H460), stomach (NCI-N87 and KATOIII), urothelial (J82, RT4), prostatic (PC3), breast (MX-1 and HCC 1806), colorectal (HT-29), and ovarian (SK-OV-3 and OVCAR-3) were obtained from the American Type Culture Collection (ATCC) and cultured at 37° C. in a humidified 95% air/5% CO2 atmosphere in the medium recommended by ATCC.
(§3) In vitro cell viability. Cell viability was analyzed as follows: cancer cells including pancreatic (PANC-1 and CFPAC-1), lung (HCC827 and H460), stomach (NCI-N87 and KATOIII), urothelial (J82, RT4), prostatic (PC3) and breast (MX-1 and HCC 1806), colorectal (HT-29) and ovarian (SK-OV-3 and OVCAR-3) were grown on 96 well plates to ˜60% confluence, the cells were starved for 24 h in culture medium containing 0.5% FBS. Cells were then treated with GHRH antagonists MIA602 AVR compounds at concentrations of 1, 2.5 or 5 μM, or vehicle (0.1% DMSO) in quintuplicates for 72 hours. The medium was replaced every 48 hours. Cell viability was measured using CellTiter 96 aqueous one solution kit (Promega). Inhibitory effects of tested AVR compounds in comparison to that of MIA602 are presented as inhibitory potency.
(§4) Inhibitory effects of selected AVR compounds in comparison to that of MIA602 are presented as inhibitory potency (e.g., percentage of inhibition). […] The cell lines tested including lung cancer HCC827 (FIG. 2A), pancreatic cancer CFPAC-1 (FIG. 2B), stomach cancer N87 (FIG. 2C), colon cancer HT-29 (FIG. 2D), breast cancers MX-1 and HCC1806 (FIGS. 2 E, F). Based on the results of cell proliferation assay after cancer cells were treated with antagonist at concentration of 5 μM for 72H, the relative inhibitory potency of AVR antagonists in comparison to MIA-602 is summarized in Table 3 A and B. Over 60 AVR compounds were tested in 12 cancer cell lines.

[3] = test system: PANC-1 pancreatic cancer cells; test: In vitro cell viability, PANC-1; type: cell-based, human; conditions: antagonist 5 μM for 72 h, cell proliferation assay; MIA602 = 1
Description: as §1, §2, §3, §4

[4] = test system: CFPAC-1 pancreatic cancer cells; test: In vitro cell viability, CFPAC-1; type: cell-based, human; conditions: antagonist 5 μM for 72 h, cell proliferation assay; MIA602 = 1
Description: as §1, §2, §3, §4
(§5) Based on the results of cell proliferation assay after cancer cells were treated with antagonist at concentration of 5 µM for 72H, * at concentration of 2 µM for 72 H.

[5] = test system: HCC1806 breast cancer cells; test: In vitro cell viability, HCC1806; type: cell-based, human; conditions: antagonist 5 μM for 72 h, cell proliferation assay; MIA602 = 1
Description: as §1, §2, §3, §4, §5

[6] = test system: MX-1 breast cancer cells; test: In vitro cell viability, MX-1; type: cell-based, human; conditions: antagonist 5 μM for 72 h, cell proliferation assay; MIA602 = 1
Description: as §1, §2, §3, §4, §5

[7] = test system: PC3 prostatic cancer cells; test: In vitro cell viability, PC3; type: cell-based, human; conditions: antagonist 5 μM for 72 h, cell proliferation assay; MIA602 = 1
Description: as §1, §2, §3
(§6) Inhibitory effects of selected AVR compounds in comparison to that of MIA602 are presented as inhibitory potency (e.g., percentage of inhibition). […] The cell lines tested including lung cancer HCC827 (FIG. 2A), pancreatic cancer CFPAC-1 (FIG. 2B), stomach cancer N87 (FIG. 2C), colon cancer HT-29 (FIG. 2D), breast cancers MX-1 and HCC1806 (FIGS. 2 E, F). […]

[8] = test system: HCC827 lung cancer cells; test: In vitro cell viability, HCC827; type: cell-based, human; conditions: antagonist 5 μM for 72 h, cell proliferation assay; MIA602 = 1
Description: as §1, §2, §3, §4, §5

[9] = test system: J82 urothelial cancer cells; test: In vitro cell viability, J82; type: cell-based, human; conditions: antagonist 5 μM for 72 h, cell proliferation assay; MIA602 = 1
Description: as §1, §2, §3, §4

[10] = test system: NCI-N87 stomach cancer cells; test: In vitro cell viability (CellTiter 96), N87; type: cell-based, human; conditions: antagonist 5 μM for 72 h, cell proliferation assay; MIA602 = 1
Description: as §1, §2, §3, §4, §5

[11] = test system: RT4 urothelial cancer cells; test: In vitro cell viability, RT4; type: cell-based, human; conditions: antagonist 5 μM for 72 h, cell proliferation assay; MIA602 = 1
Description: as §1, §2, §3, §6

pIC50 ([1]; membrane receptors on human anterior pituitary cells, mean of two to three determinations, read-out: IC50) | SMILES | pIC50 [1] | relative inhibitory potency in comparison to MIA-602, Stomach KATOIII [2] | relative inhibitory potency in comparison to MIA-602, Pancreatic Panc-1 [3] | relative inhibitory potency in comparison to MIA-602, Pancreatic CFPAC-1 [4] | relative inhibitory potency in comparison to MIA-602, Breast IICC1806 [5] | relative inhibitory potency in comparison to MIA-602, Breast MX-1 [6] | relative inhibitory potency in comparison to MIA-602, Prostatic PC3 [7] | relative inhibitory potency in comparison to MIA-602, Lung IICC827 [8] | relative inhibitory potency in comparison to MIA-602, Urothelial J82 [9] | relative inhibitory potency in comparison to MIA-602, Stomach N87 [10] | relative inhibitory potency in comparison to MIA-602, Urothelial RT4 [11]
– | CCCC[C@H](NC(=O)[C@@H](NC(=O)[C@H](CC(=O)O)NC(=O)[C@H](CCC(N)=O)NC(=O)[C@H](CC(C)C)NC(=O)[C@H](CC(C)C)NC(=O)[C@H](CCCCN)NC(=O)[C@H](CCCNC(=N)N)NC(=O)[C@H](C)NC(=O)[C@H](CO)NC(=O)[C@H](CC(C)C)NC(=O)[C@H](CCC(N)=O)NC(=O)[C@H](CC)NC(=O)[C@H](CC(C)C)NC(=O)[C@@H](NC(=O)[C@H](CCCCN)NC(=O)[C@H](CCCNC(=N)N)NC(=O)[C@H](Cc1ccc(O)cc1)NC(=O)[C@H](CCCNC(=N)N)NC(=O)[C@H](C)NC(=O)[C@@H](NC(=O)[C@H](Cc1ccc(Cl)cc1)NC(=O)[C@@H](NC(=O)[C@H](C)NC(=O)[C@H](CC(=O)O)NC(=O)[C@@H](CCCNC(=N)N)NC(=O)[C@H](Cc1ccc(O)cc1)NC(=O)CCCCCCCCCCCNC(=O)Cc1ccccc1)[C@@H](C)CC)[C@@H](C)O)C(C)C)[C@@H](C)CC)C(=O)N[C@H](CCCNC(=N)N)C(=O)N[C@@H](CCCCNC(=N)N)C(N)=O [AVR-107, PhAC-Ada-Tyr-DArg-Asp-Ala-Ile-Cpa-Thr-Ala-Arg-Tyr-Arg-Lys-Val-Leu-Abu-Gln-Leu-Ser-Ala-Arg-Lys-Leu-Leu-Gln-Asp-Ile-Nle-DArg-Har-NH2] ({PhAc-12Ado}-Y[dR]DAI[Phe(4-Cl)]TARYRKVL[Abu]QLSARKLLQDI[Nle][dR][hArg]-NH2) | 9.21 | 1.295 | 1.160 | 1.080 | 0.950 | 1.010 | 0.800 | – | – | – | –
– | CCCC[C@H](NC(=O)[C@@H](NC(=O)[C@H](CC(=O)O)NC(=O)[C@H](CCC(N)=O)NC(=O)[C@H](CC(C)C)NC(=O)[C@H](CC(C)C)NC(=O)[C@H](CCCN)NC(=O)[C@H](Cc1c[nH]cn1)NC(=O)[C@H](C)NC(=O)[C@H](CO)NC(=O)[C@H](CC(C)C)NC(=O)[C@H](CCC(N)=O)NC(=O)[C@H](CC)NC(=O)[C@H](CC(C)C)NC(=O)[C@@H](NC(=O)[C@H](CCCCN)NC(=O)[C@H](CCCNC(=N)N)NC(=O)[C@H](Cc1c(F)c(F)c(F)c(F)c1F)NC(=O)[C@H](CCCNC(=N)N)NC(=O)[C@H](C)NC(=O)[C@@H](NC(=O)[C@H](Cc1ccc(Cl)cc1)NC(=O)[C@@H](NC(=O)[C@H](C)NC(=O)[C@H](CC(=O)O)NC(=O)[C@@H](CCCNC(=N)N)NC(=O)[C@H](Cc1ccc(O)cc1)NC(=O)CCCCCCCCCCCNC(=O)Cc1ccccc1)[C@@H](C)CC)[C@@H](C)O)C(C)C)[C@@H](C)CC)C(=O)N[C@H](CCCNC(=N)N)C(=O)N[C@@H](CCCCNC(=N)N)C(N)=O [AVR-116, PhAC-Ada-Tyr-DArg-Asp-Ala-Ile-Cpa-Thr-Ala-Arg-5FPhe-Arg-Lys-Val-Leu-Abu-Gln-Leu-Ser-Ala-His-Orn-Leu-Leu-Gln-Asp-Ile-Nle-DArg-Har-NH2] ({PhAc-12Ado}-Y[dR]DAI[Phe(4-Cl)]TAR[Phe(F5)]RKVL[Abu]QLSAH[Orn]LLQDI[Nle][dR][hArg]-NH2) | 9.30 | 1.202 | 1.208 | 1.445 | – | – | – | 2.470 | 3.034 | 2.484 | –
9.32 | CCCC[C@H](NC(=O)[C@@H](NC(=O)[C@H](CC(=O)O)NC(=O)[C@H](CCC(N)=O)NC(=O)[C@H](CC(C)C)NC(=O)[C@H](CC(C)C)NC(=O)[C@H](CCCN)NC(=O)[C@H](Cc1c[nH]cn1)NC(=O)[C@H](C)NC(=O)[C@H](CO)NC(=O)[C@H](CC(C)C)NC(=O)[C@H](CCC(N)=O)NC(=O)[C@H](CC)NC(=O)[C@H](CC(C)C)NC(=O)[C@@H](NC(=O)[C@H](CCCCN)NC(=O)[C@H](CCCNC(=N)N)NC(=O)[C@H](Cc1ccc(OC)cc1)NC(=O)[C@H](CCCNC(=N)N)NC(=O)[C@H](C)NC(=O)[C@@H](NC(=O)[C@H](Cc1ccc(Cl)cc1)NC(=O)[C@@H](NC(=O)[C@H](C)NC(=O)[C@H](CC(=O)O)NC(=O)[C@@H](CCCNC(=N)N)NC(=O)[C@H](Cc1ccc(O)cc1)NC(=O)CCCCCCCCCCCNC(=O)[C@H](N)Cc1ccccc1)[C@@H](C)CC)[C@@H](C)O)C(C)C)[C@@H](C)CC)C(=O)N[C@H](CCCNC(=N)N)C(=O)N[C@@H](CCCCNC(=N)N)C(N)=O [AVR-120, D-Phe-Ada-Tyr-DArg-Asp-Ala-Ile-Cpa-Thr-Ala-Arg-Tyr(Me)-Arg-Lys-Val-Leu-Abu-Gln-Leu-Ser-Ala-His-Orn-Leu-Leu-Gln-Asp-Ile-Nle-DArg-Har-NH2] (H-[dF][12Ado]Y[dR]DAI[Phe(4-Cl)]TARY(Me)RKVL[Abu]QLSAH[Orn]LLQDI[Nle][dR][hArg]-NH2) | – | 1.271 | 1.306 | 1.617 | – | – | – | 1.423 | 4.841 | 2.339 | 1.611
